Experimental findings from ChEMBL document CHEMBL1133194, “Synthesis and bioactivities of novel piperidylpyrimidine derivatives: inhibitors of tumor necrosis factor-alpha production” (Bioorg Med Chem Lett, 2000) are described below.

Molecules are shown by their SMILES.

For the test, the species on record is Mus musculus. As to the kind of experiment: Ability to inhibit tumor necrosis factor-alpha (TNF-alpha) production in mouse macrophages stimulated with LPS. In kind it is functional.
Regarding `Nc1nc(C2CCNCC2)c2ccccc2n1`, inhibition was half-maximal at 51000 nM (IC50).
For `COc1ccc(Cc2cc(C3CCN(C(=O)c4ccc(OC)cc4)CC3)nc(N)n2)cc1` the value was 500 nM; for `COc1ccc(Cc2cc(C3CCN(C(=O)c4ccc([N+](=O)[O-])cc4)CC3)nc(N)n2)cc1`, 700 nM; for `Nc1nc(C2CCN(CCc3ccccc3)CC2)c2ccccc2n1`, above 100000 nM.
Take `COc1ccc(Cc2cc(C3CCN(C(=O)c4ccc(OC)c(OC)c4)CC3)nc(N)n2)cc1`: the IC50 (usually the point on the concentration scale where inhibition reaches its midpoint) came out at 900 nM.
For `Nc1nc(C2CCN(C(=O)C3CCCCC3)CC2)c2ccccc2n1` the value was 2500 nM; for `COc1ccc(Cc2cc(C3CCN(C(=O)Cc4ccccc4)CC3)nc(N)n2)cc1`, 2100 nM.
`CCCCCCCC(=O)N1CCC(c2cc(Cc3ccc(OC)cc3)nc(N)n2)CC1` yielded an IC50 of 1900 nM.
As to `CC(=O)N1CCC(c2nc(N)nc3ccccc23)CC1`, the IC50 was found to be 3600 nM.
For `O=C(c1ccccc1)N1CCC(c2ncnc3ccccc23)CC1` the value was 1400 nM.
For `CCCCCC(=O)N1CCC(c2cc(Cc3ccc(OC)cc3)nc(N)n2)CC1` the value was 1500 nM.
For `COc1ccc(Cc2cc(C3CCN(C(=O)c4cccc(OC)c4)CC3)nc(N)n2)cc1`, half-maximal inhibition (IC50) required 1200 nM.
For `CCCC(=O)N1CCC(c2cc(Cc3ccc(OC)cc3)nc(N)n2)CC1` the value was 7200 nM; for `COc1ccc(Cc2cc(C3CCN(C(=O)C(C)(C)C)CC3)nc(N)n2)cc1`, 5600 nM.
The compound `O=C(c1ccccc1)N1CCC(c2nc(Cl)nc3ccccc23)CC1` yielded an IC50 of 1400 nM.
`CCC(=O)N1CCC(c2cc(Cc3ccc(OC)cc3)nc(N)n2)CC1` yielded an IC50 of 4900 nM.
With `COc1ccc(Cc2cc(C3CCN(C(=O)Cc4ccc(Cl)cc4)CC3)nc(N)n2)cc1`, it took 2400 nM to reach half-maximal inhibition (IC50).
As for `Nc1nc(C2CCN(C3CCCCC3)CC2)c2ccccc2n1`, the figure is 53000 nM.
For `Nc1nc(-c2ccccc2)cc(C2CCN(C(=O)c3ccccc3)CC2)n1` the value was 5100 nM; for `Cc1cc(C2CCN(C(=O)c3ccccc3)CC2)nc(N)n1`, 9000 nM.
Take `Nc1nc(C2CCN(C(=O)CCc3ccccc3)CC2)c2ccccc2n1`: the IC50 turned out to be 6300 nM.
For `COc1ccc(Cc2cc(C3CCN(C(=O)Cc4ccc(Cl)c(Cl)c4)CC3)nc(N)n2)cc1` the value was 2100 nM.
For `Nc1nc(C2CCN(C(=O)c3ccccc3)CC2)c2ccccc2n1` the value was 1400 nM; for `COc1ccc(Cc2cc(C3CCN(C(=O)c4ccc5c(c4)OCO5)CC3)nc(N)n2)cc1`, 600 nM; for `Nc1nc(N2CCCCC2)c2ccccc2n1`, above 100000 nM.
Turning to `COc1ccc(Cc2cc(C3CCN(C(=O)Cc4ccc5c(c4)OCO5)CC3)nc(N)n2)cc1`, half-maximal inhibition (IC50) was put at 1800 nM.
`O=C(c1ccccc1)N1CCC(c2nc(O)nc3ccccc23)CC1` registered an IC50 of 20000 nM.
For `Nc1nc(C2CCN(Cc3ccccc3)CC2)c2ccccc2n1` the value was 16000 nM.
For `COc1ccc(CC(=O)N2CCC(c3cc(Cc4ccc(OC)cc4)nc(N)n3)CC2)cc1` the value was 1700 nM; for `COc1ccc(Cc2cc(C3CCN(C(=O)c4cc(OC)cc(OC)c4)CC3)nc(N)n2)cc1`, 1000 nM.
`COc1ccc(Cc2cc(C3CCN(C(=O)c4ccccc4[N+](=O)[O-])CC3)nc(N)n2)cc1` gave an IC50 of 1700 nM.
As for `COc1ccc(Cc2cc(C3CCN(C(=O)c4cccc([N+](=O)[O-])c4)CC3)nc(N)n2)cc1`, the figure is 800 nM; as for `Nc1nc(Nc2ccccc2)c2ccccc2n1`, above 100000 nM.
As for `COc1ccc(Cc2cc(C3CCN(C(=O)c4ccc(Cl)cc4)CC3)nc(N)n2)cc1`, the figure is 600 nM; as for `CN1CCC(c2nc(N)nc3ccccc23)CC1`, above 100000 nM.
For `COc1ccc(Cc2cc(C3CCN(C(=O)c4cccc(OC)c4OC)CC3)nc(N)n2)cc1` the value was 900 nM.
As to `COc1ccc(Cc2cc(C3CCN(C(=O)c4ccccc4OC)CC3)nc(N)n2)cc1`, it took 3600 nM to reach half-maximal inhibition (IC50).
For `CN1CCN(c2nc(N)nc3ccccc23)CC1` the value was above 100000 nM; for `COc1ccc(Cc2cc(C3CCN(C(=O)Cc4ccc(OC)c(OC)c4)CC3)nc(N)n2)cc1`, 1200 nM; for `Nc1nc(C2CCN(C(=O)c3ccc4c(c3)OCO4)CC2)c2ccccc2n1`, 4500 nM.
As for `Nc1nc(C2CCN(C(=O)Cc3ccccc3)CC2)c2ccccc2n1`, the figure is 2000 nM; as for `COc1ccc(Cc2cc(C3CCN(C(C)=O)CC3)nc(N)n2)cc1`, 6100 nM.
As for `COc1ccc(Cc2cc(C3CCN(C(=O)c4ccc(Cl)c(Cl)c4)CC3)nc(N)n2)cc1`, the figure is 700 nM.
The compound `CCCCC(=O)N1CCC(c2nc(N)nc3ccccc23)CC1` came in with a concentration for half-maximal inhibition (IC50) of 3000 nM.
For `COc1ccc(-c2c(C)nc(N)nc2C2CCN(C(=O)c3ccccc3)CC2)cc1` the value was 9700 nM.
As for `COc1ccc(Cc2cc(C3CCN(C(=O)c4ccccc4)CC3)nc(N)n2)cc1`, the figure is 1400 nM.
